Assay results as given in ChEMBL document CHEMBL1201862, “PubChem BioAssay data set” (2004).
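Each compound was tested at five concentrations against cells in 96-well plates for 48 hours. GI50 marks 50% less growth.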 Calls of active or inactive are those of the source. No stated cut-off is given here; in the data, active = GI50 up to about 1.1 µM and inactive = higher.

How the values were obtained:
Assay in all cases: inhibition of tumour cell growth, NCI panel, 48 h
HT-29 = system: HT-29
DU-145 = system: DU-145
786-0 = system: 786-0
MCF7 = system: MCF7
T47D = system: T47D
SF-539 = system: SF-539
NCI-H522 = system: NCI-H522
Hs-578T = system: Hs-578T
SK-MEL-2 = system: SK-MEL-2
HOP-62 = system: HOP-62
SN12C = system: SN12C
HCT-15 = system: HCT-15
K562 = system: K562
ACHN = system: ACHN
MDA-MB-435 = system: MDA-MB-435
HCC 2998 = system: HCC 2998
IGROV-1 = system: IGROV-1
HCT-116 = system: HCT-116
Malme-3M = system: Malme-3M
UACC-62 = system: UACC-62
UO-31 = system: UO-31
OVCAR-3 = system: OVCAR-3
MDA-MB-231 = system: MDA-MB-231
EKVX = system: EKVX
OVCAR-5 = system: OVCAR-5
LOX IMVI = system: LOX IMVI
NCI-H23 = system: NCI-H23
NCI-H460 = system: NCI-H460
MOLT-4 = system: MOLT-4
NCI-H226 = system: NCI-H226
UACC-257 = system: UACC-257
COLO 205 = system: COLO 205
SR = system: SR
OVCAR-8 = system: OVCAR-8
CAKI-1 = system: CAKI-1
SW-620 = system: SW-620
TK-10 = system: TK-10
RPMI-8226 = system: RPMI-8226
SK-MEL-5 = system: SK-MEL-5
KM12 = system: KM12
BT-549 = system: BT-549
OVCAR-4 = system: OVCAR-4
SK-MEL-28 = system: SK-MEL-28
SF-268 = system: SF-268
SNB-19 = system: SNB-19
CCRF-CEM = system: CCRF-CEM
SF-295 = system: SF-295
NCI/ADR-RES = system: NCI/ADR-RES
SK-OV-3 = system: SK-OV-3
MDA-N = system: MDA-N
U-251 = system: U-251
A498 = system: A498
HOP-92 = system: HOP-92
HL-60 = system: HL-60
A549 = system: A549
RXF 393 = system: RXF 393
M14 = system: M14
SNB-75 = system: SNB-75
PC-3 = system: PC-3

Measured: GI50

CCc1n[nH]c(=O)n1CC
> 100 µM: HCT-15
inactive: HT-29 > 100 µM | DU-145 > 100 µM | 786-0 > 100 µM | MCF7 > 100 µM | T47D > 100 µM | SF-539 > 100 µM | NCI-H522 > 100 µM | Hs-578T > 100 µM | SK-MEL-2 > 100 µM | HOP-62 > 100 µM | SN12C > 100 µM | K562 > 100 µM | ACHN > 100 µM | MDA-MB-435 > 100 µM | HCC 2998 > 100 µM | IGROV-1 > 100 µM | HCT-116 > 100 µM | Malme-3M > 100 µM | UACC-62 > 100 µM | UO-31 > 100 µM | OVCAR-3 > 100 µM | MDA-MB-231 > 100 µM | EKVX > 100 µM | OVCAR-5 > 100 µM | LOX IMVI > 100 µM | NCI-H23 > 100 µM | NCI-H460 > 100 µM | MOLT-4 > 100 µM | NCI-H226 > 100 µM | UACC-257 > 100 µM | COLO 205 > 100 µM | SR > 100 µM | OVCAR-8 > 100 µM | CAKI-1 > 100 µM | SW-620 > 100 µM | TK-10 > 100 µM | RPMI-8226 > 100 µM | SK-MEL-5 > 100 µM | KM12 > 100 µM | BT-549 > 100 µM | OVCAR-4 > 100 µM | SK-MEL-28 > 100 µM | SF-268 > 100 µM | SNB-19 > 100 µM | CCRF-CEM > 100 µM | SF-295 > 100 µM | NCI/ADR-RES > 100 µM | SK-OV-3 > 100 µM | MDA-N > 100 µM | U-251 > 100 µM | A498 > 100 µM | HOP-92 > 100 µM | HL-60 21.7 µM | A549 > 100 µM

COc1ccc(-c2cc(-c3ccccc3)c3c(n2)-c2ccccc2NC(=O)C3)cc1
inactive: HT-29 12.1 µM | DU-145 > 100 µM | 786-0 29 µM | MCF7 39.4 µM | T47D 74 µM | RXF 393 30.2 µM | SF-539 > 100 µM | Hs-578T 5.15 µM | SK-MEL-2 32.7 µM | HOP-62 36 µM | SN12C 58.6 µM | K562 1.47 µM | ACHN 35.1 µM | MDA-MB-435 > 100 µM | HCC 2998 53 µM | IGROV-1 13.8 µM | M14 71 µM | HCT-116 25.5 µM | Malme-3M 17.4 µM | UACC-62 98.2 µM | UO-31 > 100 µM | SNB-75 1.19 µM | OVCAR-3 30.1 µM | MDA-MB-231 25.4 µM | EKVX 40.3 µM | OVCAR-5 > 100 µM | LOX IMVI 65.6 µM | NCI-H23 > 100 µM | NCI-H460 25.9 µM | NCI-H226 58.2 µM | UACC-257 > 100 µM | COLO 205 > 100 µM | PC-3 28.3 µM | OVCAR-8 9.66 µM | CAKI-1 40.9 µM | SW-620 > 100 µM | TK-10 41.8 µM | RPMI-8226 > 100 µM | SK-MEL-5 23.8 µM | KM12 35.4 µM | BT-549 > 100 µM | OVCAR-4 3.64 µM | SK-MEL-28 > 100 µM | SF-268 23.7 µM | SNB-19 34.7 µM | SF-295 47.5 µM | NCI/ADR-RES 36.5 µM | SK-OV-3 39.9 µM | MDA-N 30 µM | U-251 22.5 µM | A498 > 100 µM | HOP-92 27 µM | HL-60 > 100 µM | A549 49.4 µM
17.7 µM: HCT-15
